# Assay results from US20240400572A1, “COMPOUNDS AND METHODS FOR TREATING CANCERS THAT ARE MGMT DEFICIENT REGARDLESS OF MMR STATUS” (Yale University, priority 2021, published 2024).
# “And” between values parts separate entries of the source, which are not always exact repeats. Equal values may be shown once. Read-outs that look alike come from different tables or passages of the source.
# Experiment: Brain distribution study
# Format: in vivo, male C57BL/6 mice
# Procedure: Compound KL50 dosing solution: 3.39% DMSO+96.61% (10% HP-β-CD in saline) at 2 mg/mL; • 1) Weigh 17.39 mg of compound KL50 into a clean tube. • 2) Add 0.295 mL DMSO into the tube containing the compound. • 3) Vortex the tube for 3 min and sonicate it for 4 min. • 4) Add 8.400 mL 10% HP-β-CD in saline into the tube and vortex the tube for 3 min. Compound I-1 dosing solution: 3.39% DMSO+96.61% (10% HP-β-CD in saline) at 2 mg/mL; • 1) Weigh 16.86 mg Compound I-1 into a clean tube. • 2) Add 0.286 mL DMSO into the tube containing the compound. • 3) Vortex the tube for 3 min and sonicate it for 4 min. • 4) Add 8.144 mL 10% HP-β-CD in saline into the tube and vortex the tube for 3 min.
# The in-vivo pharmacokinetic and brain distribution study was conducted under the following parameters. Twenty seven C57BL/6 male mice were purchased from Shanghai JiHui Laboratory Animal Co. LTD. Each mouse weighted from 16 g to 17 g. The mice were fasted overnight and fed post 4 hr sampling. Compound KL50 and Compound I-I were administered via oral gavage (PO) at a dose of 20 mg/kg (10 mL/kg). After dosing, sampling was completed at 0.083, 0.167, 0.333, 0.5, 0.75, 1, 2, 4 and 8 hr post dose, with three mice sacrificed at each time point.
# Terminal bleeding for plasma and brain was completed at each time point. Approximately 110 μL blood per time point was collected into a K2EDTA tube via the facial vein. The blood sample was put on wet ice and centrifuged to obtain plasma sample (2000 g, 5 min under 4° C.) within 15 minutes. Plasma samples were acidified with 6 μL of formic acid for every 54 μL of plasma. After blood collection, a mid-line incision was made in the animal's scalp and the skin was retracted. The skull overlying the brain was removed. Then, the whole brain was collected, rinsed with cold saline, dried on filtrate paper, and weighed; and then snap frozen by placing the brain into dry-ice. Plasma samples were stored at approximately −70° C. until analysis. Brain tissue was homogenized with 3 volumes (v/w) of PBS (1% FA) and then analyzed with LC-MS/MS. The concentration of study drug was corrected with a dilution factor of four as following: Brain concentration=brain homogenate conc.×4, assuming 1 g wet brain tissue equals to 1 mL
# [1] = PO 20 mg/kg, male C57BL/6 mice, 0.083 hr, 20 mg/kg
# [2] = PO 20 mg/kg, male C57BL/6 mice, 0.167 hr, 20 mg/kg
# [3] = PO 20 mg/kg, male C57BL/6 mice, 0.333 hr, 20 mg/kg
# [4] = PO 20 mg/kg, male C57BL/6 mice, 0.5 hr, 20 mg/kg
# [5] = PO 20 mg/kg, male C57BL/6 mice, 0.75 hr, 20 mg/kg
# [6] = PO 20 mg/kg, male C57BL/6 mice, 1 hr, 20 mg/kg
# [7] = PO 20 mg/kg, male C57BL/6 mice, 2 hr, 20 mg/kg
# [8] = PO 20 mg/kg, male C57BL/6 mice, 4 hr
# [9] = PO 20 mg/kg, male C57BL/6 mice, 8 hr
# [10] = brain, PO 20 mg/kg, male C57BL/6 mice
# [11] = mouse, brain, PO 20 mg/kg, male C57BL/6 mice
structure (smiles),measurement,setting,value
"CNC(=O)c1ncn2c(=O)n(CCF)nnc12 [Compound I-1, 3-(2-fluoroethyl)-N-methyl-4-oxo-3H,4H-imidazo[4,3-d][1,2,3,5]tetrazine-8-carboxamide]","Brain Concentration/Plasma Concentration, Individuals",[1],0.310 and 0.329
same,"brain Concentration, Individuals",[1],6300 ng/g and 6740 ng/g
same,"Brain Concentration/Plasma Concentration, Individuals",[2],0.473 and 0.549
same,"brain Concentration, Individuals",[2],7100 ng/g and 9110 ng/g
same,"Brain Concentration/Plasma Concentration, Individuals",[3],0.606 and 0.651
same,"brain Concentration, Individuals",[3],6850 ng/g and 8730 ng/g
same,"Brain Concentration/Plasma Concentration, Individuals",[4],0.677 and 0.522
same,"brain Concentration, Individuals",[4],4770 ng/g and 3750 ng/g
same,"Brain Concentration/Plasma Concentration, Individuals",[5],0.623 and 0.560
same,"brain Concentration, Individuals",[5],2500 ng/g and 1920 ng/g
same,"Brain Concentration/Plasma Concentration, Individuals",[6],0.626 and 0.527
same,"brain Concentration, Individuals",[6],952 ng/g and 1280 ng/g
same,"Brain Concentration/Plasma Concentration, Individuals",[7],0.483 and 0.490
same,"brain Concentration, Individuals",[7],155 ng/g and 345 ng/g and 90.6 ng/g
same,"brain Concentration, Individuals (below limit)",[8],BQL (Below the quantifiable limit of 1.00 ng/mL or ng/g for Compound I-1 in mouse plasma and brain homogenate)
same,"brain Concentration, Mean (below limit)",[8],BQL (Below the quantifiable limit of 1.00 ng/mL or ng/g for Compound I-1 in mouse plasma and brain homogenate)
same,"brain Concentration, Individuals (below limit)",[9],BQL (Below the quantifiable limit of 1.00 ng/mL or ng/g for Compound I-1 in mouse plasma and brain homogenate)
same,"brain Concentration, Mean (below limit)",[9],BQL (Below the quantifiable limit of 1.00 ng/mL or ng/g for Compound I-1 in mouse plasma and brain homogenate)
same,AUCINF,[10],4849 ng·h/g
same,AUClast,[10],4749 ng·h/g
same,concentration at 0.083 hr,"male, C57BL/6, mouse, brain, po, 20 mg/kg, PO 20 mg/kg, male C57BL/6 mice, 0.083 hr, N=3, read-out: brain Concentration, Mean",6300 ng/g
same,concentration at 0.083 hr,"male, C57BL/6, mouse, brain, po, 20 mg/kg, PO 20 mg/kg, male C57BL/6 mice, 0.083 hr, read-out: brain Concentration, Individuals",5860 ng/g
same,concentration at 0.167 hr,"male, C57BL/6, mouse, brain, po, 20 mg/kg, PO 20 mg/kg, male C57BL/6 mice, 0.167 hr, N=3, read-out: brain Concentration, Mean",7210 ng/g
same,concentration at 0.167 hr,"male, C57BL/6, mouse, brain, po, 20 mg/kg, PO 20 mg/kg, male C57BL/6 mice, 0.167 hr, read-out: brain Concentration, Individuals",5420 ng/g
same,concentration at 0.333 hr,"male, C57BL/6, mouse, brain, po, 20 mg/kg, PO 20 mg/kg, male C57BL/6 mice, 0.333 hr, N=3, read-out: brain Concentration, Mean",6840 ng/g
same,concentration at 0.333 hr,"male, C57BL/6, mouse, brain, po, 20 mg/kg, PO 20 mg/kg, male C57BL/6 mice, 0.333 hr, read-out: brain Concentration, Individuals",4950 ng/g
same,concentration at 0.5 hr,"male, C57BL/6, mouse, brain, po, 20 mg/kg, PO 20 mg/kg, male C57BL/6 mice, 0.5 hr, N=3, read-out: brain Concentration, Mean",3940 ng/g
same,concentration at 0.5 hr,"male, C57BL/6, mouse, brain, po, 20 mg/kg, PO 20 mg/kg, male C57BL/6 mice, 0.5 hr, read-out: brain Concentration, Individuals",3310 ng/g
same,concentration at 0.75 hr,"male, C57BL/6, mouse, brain, po, 20 mg/kg, PO 20 mg/kg, male C57BL/6 mice, 0.75 hr, N=3, read-out: brain Concentration, Mean",2240 ng/g
same,concentration at 0.75 hr,"male, C57BL/6, mouse, brain, po, 20 mg/kg, PO 20 mg/kg, male C57BL/6 mice, 0.75 hr, read-out: brain Concentration, Individuals",2290 ng/g
same,concentration at 1 hr,"male, C57BL/6, mouse, brain, po, 20 mg/kg, PO 20 mg/kg, male C57BL/6 mice, 1 hr, N=3, read-out: brain Concentration, Mean",1120 ng/g
same,concentration at 1 hr,"male, C57BL/6, mouse, brain, po, 20 mg/kg, PO 20 mg/kg, male C57BL/6 mice, 1 hr, read-out: brain Concentration, Individuals",1140 ng/g
same,concentration at 2 hr,"male, C57BL/6, mouse, brain, po, 20 mg/kg, PO 20 mg/kg, male C57BL/6 mice, 2 hr, N=3, read-out: brain Concentration, Mean",197 ng/g
same,Kp,"male, C57BL/6, mouse, brain/plasma, po, 20 mg/kg, AUCbrain/AUCplasma, PO 20 mg/kg, male C57BL/6 mice, heading: AUCbrain/AUCplasma",49.1%
same,Kp at 0.083 hr,"male, C57BL/6, mouse, brain/plasma, po, 20 mg/kg, PO 20 mg/kg, male C57BL/6 mice, 0.083 hr, N=3, read-out: Brain Concentration/Plasma Concentration, Mean",0.305
same,Kp at 0.083 hr,"male, C57BL/6, mouse, brain/plasma, po, 20 mg/kg, PO 20 mg/kg, male C57BL/6 mice, 0.083 hr, read-out: Brain Concentration/Plasma Concentration, Individuals",0.276
same,Kp at 0.167 hr,"male, C57BL/6, mouse, brain/plasma, po, 20 mg/kg, PO 20 mg/kg, male C57BL/6 mice, 0.167 hr, N=3, read-out: Brain Concentration/Plasma Concentration, Mean",0.501
same,Kp at 0.167 hr,"male, C57BL/6, mouse, brain/plasma, po, 20 mg/kg, PO 20 mg/kg, male C57BL/6 mice, 0.167 hr, read-out: Brain Concentration/Plasma Concentration, Individuals",0.48
same,Kp at 0.333 hr,"male, C57BL/6, mouse, brain/plasma, po, 20 mg/kg, PO 20 mg/kg, male C57BL/6 mice, 0.333 hr, N=3, read-out: Brain Concentration/Plasma Concentration, Mean",0.606
same,Kp at 0.333 hr,"male, C57BL/6, mouse, brain/plasma, po, 20 mg/kg, PO 20 mg/kg, male C57BL/6 mice, 0.333 hr, read-out: Brain Concentration/Plasma Concentration, Individuals",0.561
same,Kp at 0.5 hr,"male, C57BL/6, mouse, brain/plasma, po, 20 mg/kg, PO 20 mg/kg, male C57BL/6 mice, 0.5 hr, N=3, read-out: Brain Concentration/Plasma Concentration, Mean",0.575
same,Kp at 0.5 hr,"male, C57BL/6, mouse, brain/plasma, po, 20 mg/kg, PO 20 mg/kg, male C57BL/6 mice, 0.5 hr, read-out: Brain Concentration/Plasma Concentration, Individuals",0.525
same,Kp at 0.75 hr,"male, C57BL/6, mouse, brain/plasma, po, 20 mg/kg, PO 20 mg/kg, male C57BL/6 mice, 0.75 hr, N=3, read-out: Brain Concentration/Plasma Concentration, Mean",0.586
same,Kp at 0.75 hr,"male, C57BL/6, mouse, brain/plasma, po, 20 mg/kg, PO 20 mg/kg, male C57BL/6 mice, 0.75 hr, read-out: Brain Concentration/Plasma Concentration, Individuals",0.575
same,Kp at 1 hr,"male, C57BL/6, mouse, brain/plasma, po, 20 mg/kg, PO 20 mg/kg, male C57BL/6 mice, 1 hr, N=3, read-out: Brain Concentration/Plasma Concentration, Mean",0.559
same,Kp at 1 hr,"male, C57BL/6, mouse, brain/plasma, po, 20 mg/kg, PO 20 mg/kg, male C57BL/6 mice, 1 hr, read-out: Brain Concentration/Plasma Concentration, Individuals",0.523
same,Kp at 2 hr,"male, C57BL/6, mouse, brain/plasma, po, 20 mg/kg, PO 20 mg/kg, male C57BL/6 mice, 2 hr, N=3, read-out: Brain Concentration/Plasma Concentration, Mean",0.468
same,Kp at 2 hr,"male, C57BL/6, mouse, brain/plasma, po, 20 mg/kg, PO 20 mg/kg, male C57BL/6 mice, 2 hr, read-out: Brain Concentration/Plasma Concentration, Individuals",0.432
same,Cmax,[11],7210 ng/g
same,MRT inf,[11],31.6 min
same,Tmax,[11],10 min
same,half-life,[11],21.1 min
same,concentration in brain tissue compared with KL50 (in words),oral administration to mice,much larger concentration in brain tissue
